In assay [1] the test system is murine macrophage cells. The assay is described as follows: nitric oxide production by murine macrophage cells (Griess). The assay is classed as cell-based, C57/BL6 mice. The settings on record: for Max concentration: concentration at maximum amplitude; for EC50 conc: concentration corresponding to 50% of maximum amplitude; for Min concentration: lowest concentration inducing a significant response. In outline:
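Bone-marrow macrophages from male C57/BL6 mice, differentiated 8 days with L929 supernatant, exposed to serially diluted compound for 22 h at 37 °C. Nitrite in supernatant measured by Griess reaction (562 nm vs 690 nm) against a standard curve. EC50 is concentration giving 50% of maximum amplitude, by line-segment interpolation.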
Background: Nitrite, measured by Griess reagent, commonly stands in for NO production.

Assay [2] deals with human peripheral blood mononuclear cells. The assay is described as follows: α TNF production by human peripheral blood mononuclear cells. The settings on record: for α TNF produced: 18 hours. The assay is classed as cell-based. The method in brief: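 Ficoll-isolated PBMC from 6 healthy donors (2×10^6 viable cells/ml, RPMI-1640, 10% FCS) exposed in triplicate for 18 h at 37 °C, 5% CO2 to compounds diluted 100-, 10- or 1-fold. Secreted TNF-α measured by chemiluminescent ELISA on 4-fold diluted supernatants against a 0.7–7000 pg/ml standard curve; values in pg/ml.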

In assay [3] the test system is CD83, CD86 surface markers of predendritic cells (DC-6). The assay is described as follows: dendritic cell differentiation test: CD83, CD86 surface marker expression. As to conditions: for CD86 % CD / CD86 Fluorescence: 10 μg/ml; for CD86 % CD: products redissolved in pyrogen-free water, % of dendritic cells; for CD86 Fluorescence: mean fluorescence value; for concentration inducing an increase in expression of CD83 and CD86 surface markers: FIGS. 75 & 76. In kind it is cell-based, human. As for the experimental part:
The ability of products of the invention to induce maturation of predendritic cells into dendritic cells was assessed. The following parameters were measured: FITC-Dextran conjugate take-up and expression of CD83, CD86 surface markers.
Mononucleated cells of peripheral blood are isolated from buffy coats of healthy donors. Purified monocytes by adherence selection are resuspended in RPMI-1640 medium containing 10% of foetal calf serum (FCS), GM-CSF and IL-4 (10 ng/ml) at a density of 1×10^6 cells/ml. Cells are divided into Petri Dishes (10×10^6 cells per dish) and cultured for 6 days with a change to fresh medium after 3 days. Cells thus obtained are called predendritic cells (DC-6). Maturation of predendritic cells into mature dendritic cells is achieved by incubating cells with diluted solutions of the products or LPS (positive control) for 3 more days (see product section below). At day 9 (DC-9), cells are harvested and analyzed for different indicators of dendritic cell maturation: assessment of CD83, CD86 surface marker expression as well as of their ability to take up FITC-Dextran conjugate. All these parameters are analyzed by an EPICS-XL-MCL model FACS (Coulter Immunology, Hialeah, […]).
Expression of surface markers is given as % of mean fluorescence of LPS-activated cells (positive control); FITC-Dextran conjugate take-up rate is calculated based on take-up of cells maintained in basic medium and is expressed in %.
Solutions are incubated at 37° C. for 20 minutes, subjected to vigorous stirring during 3 minutes and then diluted to 100 μg/ml in RPMI-1640 culture medium and used in diluted state at concentrations ranging from 10 μg/ml to 0.03 μg/ml. Reference Product: E. coli lipopolysaccharide (LPS, DIFCO, Detroit, Mich., U.S.A.), as a 5 mg/ml stock solution in PBS. An intermediate 100 μg/ml solution is prepared in RPMI 1640 culture medium. Concentrations of dilute solutions being tested range from 1 μg/ml to 0.03 μg/ml.
In another series of experiments, all acyl dipeptide-like compounds were freeze-dried and directly redissolved into pyrogen-free water. Different products as well as LPS control are tested at a concentration of 10 μg/ml. Results are given as % of dendritic cells and mean fluorescence value for dextran phagocytosis or CD86 surface marker expression.

Values after ≈ are worked out from the molar mass of the structure shown. Bounds are passed on as bounds.

In assay [1], `CCCCCCCCCCCC(=O)O[C@H](CCCCCCCCCCC)CC(=O)N[C@H](CC(=O)N[C@@H](CC(=O)O)C(=O)O)C(=O)NCCC[C@H](CO)NC(=O)C[C@H](O)CCCCCCCCCCC` [OM-197-Asp, N—[(R)-3-dodecanoyloxytetradecanoyl]-D-aspartic acid, α-N-{(4R)-5-hydroxy-4-[(R)-3-hydroxytetradecanoylamino]-pentyl}Amide β-N-[(1S)-1,2-Dicarboxyethyl]Amide] returned a Max concentration of 51 µg/mL, an EC50 conc of 0.95 µg/mL (≈ 0.966 µM) and a Min concentration of 0.086 µg/mL. Moreover, in assay [2] (product 1 μg/ml), the “α TNF produced” value is 0 pg/mL. Moreover, the “α TNF produced” value in assay [2] (product 10 μg/ml) is 28 pg/mL. Moreover, the “α TNF produced” value in assay [2] (product 100 μg/ml) amounted to 80 pg/mL. Besides, in assay [3], the “CD86 % CD” value worked out at 29.0% and the “CD86 Fluorescence” value came to 2.6.

`CCCCCCCCCCCC(=O)O[C@H](CCCCCCCCCCC)CC(=O)N[C@H](CC(=O)O)C(=O)NCCC[C@H](COC(=O)CCC(=O)O)NC(=O)C[C@H](O)CCCCCCCCCCC` [OM-197-MC-Succ]: in assay [1], the Max concentration was determined as 16 µg/mL, the EC50 conc worked out at 0.89 µg/mL (≈ 0.919 µM) and the Min concentration worked out at 0.22 µg/mL. In addition, in assay [2] (product 1 μg/ml), the “α TNF produced” value is 0 pg/mL. For the same molecule, the “α TNF produced” value in assay [2] (product 10 μg/ml) came out at 96 pg/mL. In addition, in assay [2] (product 100 μg/ml), the “α TNF produced” value was determined as 176 pg/mL. In assay [3], the “CD86 % CD” value is listed as 34.9% and the “CD86 Fluorescence” value was 3.0.

For `CCCCCCCCCCCC(=O)O[C@H](CCCCCCCCCCC)CC(=O)N[C@H](CC(=O)O)C(=O)NCCC[C@H](CO)NC(=O)C[C@H](O)CCCCCCCCCCC` [OM-197-MC, N—[(R)-3-dodecanoyloxytetradecanoyl]-D-aspartic acid, α-N-{(4R)-5-hydroxy-4[(R)-3-hydroxytetradecanoylamino]-pentyl}amide], in assay [1], the Max concentration came to 51 µg/mL, the EC50 conc amounted to 1.23 µg/mL (≈ 1.42 µM) and the Min concentration is 0.15 µg/mL. Besides, the “concentration at which a significant α TNF production level is induced” value in assay [2] (only at this concentration) came out at 100 µg/mL. The “α TNF produced” value in assay [2] (product 1 μg/ml) is 0 pg/mL. Further, the “α TNF produced” value in assay [2] (product 10 μg/ml) came to 0 pg/mL. Further, the “α TNF produced” value in assay [2] (product 100 μg/ml) was 12 pg/mL. Also, the “concentration inducing an increase in expression of CD83 and CD86 surface markers” value in assay [3] is “at least 1 μg/ml”.

For the molecule `CCCCCCCCCCCC(=O)O[C@H](CCCCCCCCCCC)CC(=O)NC(CCOP(=O)(O)O)C(=O)NCCCC(COC(=O)CCCCC(O)CO)NC(=O)C[C@H](O)CCCCCCCCCCC` (stereo partly drawn) [OM-197-FV6, 3-[(R)-dodecanoyloxytetradecanoylamino]-4oxo-5-aza-9-[(R)-3-hydroxytetradecanoylamino]-decan-1,10-diol 1-dihydrogenphate 10-(6,7-dihydroxyheptanoate)], in assay [1], the Max concentration was found to be 25.6 µg/mL, the EC50 conc is 1.49 µg/mL (≈ 1.38 µM) and the Min concentration was 0.20 µg/mL. In addition, in assay [2] (product 1 μg/ml), the “α TNF produced” value is 0 pg/mL. Further, the “α TNF produced” value in assay [2] (product 10 μg/ml) was 104 pg/mL. Besides, in assay [2] (product 100 μg/ml), the “α TNF produced” value was determined as 88 pg/mL. Besides, in assay [3], the “CD86 % CD” value was 62.9%; the “CD86 Fluorescence” value is listed as 4.9; the “concentration inducing an increase in expression of CD83 and CD86 surface markers” value is given as “no effect at all”.

For the molecule `CCCCCCCCCCCC(=O)O[C@H](CCCCCCCCCCC)CC(=O)N[C@H](CC(=O)N[C@@H](CC(=O)O)C(=O)O)C(=O)NCCC[C@H](COC(=O)CCCCCN)NC(=O)C[C@H](O)CCCCCCCCCCC` [OM-197-Asp-AC, N—[(R)-3-dodecanoyloxytetradecanoyl]-D-aspartic acid, α-N-{(4R)-5-(6-aminohexanoyloxy)-4-[(R)-3-hydroxytetradecanoyl-amino]-pentyl}amide β-N-[(1S)-1,2-dicarboxyethyl]Amide], in assay [1], the Max concentration is greater than 100 µg/mL, the EC50 conc is greater than 7.04 µg/mL and the Min concentration amounted to 2.00 µg/mL. The “α TNF produced” value in assay [2] (product 1 μg/ml) turned out to be 20 pg/mL. Moreover, in assay [2] (product 10 μg/ml), the “α TNF produced” value turned out to be 172 pg/mL. For the same molecule, the “α TNF produced” value in assay [2] (product 100 μg/ml) is 132 pg/mL. In assay [3], the “CD86 % CD” value is on record as 26.7% and the “CD86 Fluorescence” value is 2.4.

`CCCCCCCCCCCC(=O)O[C@H](CCCCCCCCCCC)CC(=O)N[C@H](CC(=O)O)C(=O)NCCC[C@H](COC(=O)CCCCCNC(=O)CCC(=O)OC[C@@H]1C=C[C@H](n2cc(C)c(=O)[nH]c2=O)O1)NC(=O)C[C@H](O)CCCCCCCCCCC` [OM-197-MC-AC-Succ-d4T]: in assay [1], the Max concentration came out at 12.5 µg/mL, the EC50 conc is 1.15 µg/mL (≈ 0.893 µM) and the Min concentration was 0.56 µg/mL. In addition, in assay [2] (product 1 μg/ml), the “α TNF produced” value came out at 0 pg/mL. For the same molecule, the “α TNF produced” value in assay [2] (product 10 μg/ml) was determined as 40 pg/mL. Also, the “α TNF produced” value in assay [2] (product 100 μg/ml) is 52 pg/mL. In assay [3], the “CD86 % CD” value came out at 25.9% and the “CD86 Fluorescence” value was 2.4.

The record behind these values is US8173133B2, “Acyl pseudodipeptides which carry a functionalized auxiliary arm” (OM Pharma, priority 1999, dated 2012).
